Results: article PMC11352273, “The Proapoptotic Action of Pyrrolidinedione–Thiazolidinone Hybrids towards Human Breast Carcinoma Cells Does Not Depend on Their Genotype” (Cancers, 2024)

Legend:
Beclin-1 in MCF-7 cells = test: Beclin-1 ELISA in cell lysates; type: cell-based, human; details: MCF-7, 24 h, 2 μM; untreated control 4.08 ng/mL
Protocol: (§1) In order to determine the Beclin-1 concentration in the cell lysates, the SimpleStep ELISA (Abcam, Cambridge, UK) Kit was used. MMP-2, MMP-9, and ICAM-1 concentrations were measured in culture supernatants using high-sensitivity human SimpleStep ELISA kits (Abcam, Cambridge, UK) according to the manufacturer’s protocols. The LC3B ELISA kit (BT LAB, Shanghai, China) was used to check the protein concentration in cell lysates from analyzed breast cancer cells. The procedure for preparing the samples was shown previously.

[1] = system: Beclin-1 in MDA-MB-231 cells; test: Beclin-1 ELISA in cell lysates; type: cell-based, human; details: MDA-MB-231, 24 h, 2 μM; untreated control 11.79 ng/mL
Protocol: as §1

[2] = system: caspase 10 in MCF-7 cells; test: Caspase-10 activity, FAM-FLICA flow cytometry; type: cell-based, human; details: MCF-7, 24 h
caspase 9 in MCF-7 cells = test: Caspase-9 activity, FAM-FLICA flow cytometry; type: cell-based, human; details: MCF-7, 24 h
Protocol: (§3) The assay was performed following the manufacturer’s instructions and the previously described methodology [25]. […] The cells were gathered, rinsed twice with chilled PBS, and reconstituted in an Apoptosis Wash Buffer. Then, 10 µL of freshly diluted FLICA solution was added to 290 µL of cell suspension and incubated for an hour at 37 °C. Following two rounds of washing with 2 mL of Apoptosis Wash Buffer, the cells were centrifuged, resuspended in 300 µL of the buffer, and then analyzed [25].

[3] = system: caspase 8 in MDA-MB-231 cells; test: Caspase-8 activity, FAM-FLICA flow cytometry; type: cell-based, human; details: MDA-MB-231, 24 h
Protocol: as §3

[4] = system: mitogen-activated lymphocytes collected from the peripheral blood of a healthy donor; design: method as in PMID 37579525; details: cited from earlier work
caspase 8 in MCF-7 cells = test: Caspase-8 activity, FAM-FLICA flow cytometry; type: cell-based, human; details: MCF-7, 24 h
Protocol: as §3

[5] = system: MCF-7, MDA-MB-231, and HCC1954 cell lines; test: [3H]-thymidine incorporation assay, summary over cancer cell lines; type: cell-based; details: Homo sapiens; 24 h, MCF-7, MDA-MB-231, HCC1954; read-out: IC50 of DNA synthesis inhibition, range over cell lines
Protocol: Following a 24 h cell treatment, the incorporation of [^3H]-thymidine into the DNA of the breast tumor and normal cells was used to measure the antiproliferative activity of Les-6287. The MCF-7, MDA-MB-231, HCC1954, and MCF-10A cells were seeded into six-well plates (density 3 × 10^5 cells/well) and cultured for 24 h. Then, they were incubated under the same conditions for the next 24 h with a growth medium containing the tested compounds and reference drug (doxorubicin) at different concentrations (1, 2.5, 5, 10, 50 µM). After 24 h, the medium was changed to a fresh one without FBS. A total of 0.5 µCi of tritium-labeled thymidine (specific activity: 7 Ci/mmol) was added to cells for 4 h. The cells were washed with 1 mL of 0.05 M Tris-HCl buffer pH 7.4 containing 0.11 M NaCl and 1 mL of 5% trichloroacetic acid (TCA). Each well was filled with 1 mL of a 0.1 M NaOH solution containing 1% SDS to complete cell lysis. After 5 min, the acquired cell lysates were put into scintillation vials and pre-filled with two milliliters of scintillation liquid. The Scintillation Counter 1900 TR, TRI-CARB (Packard, Perkin Elmer, Inc., San Jose, CA, USA) was used to record the results. The effect of compounds on DNA synthesis was expressed as % of the control (non-treated cells).

LC3B in MCF-7 cells = test: LC3B ELISA in cell lysates; type: cell-based, human; details: MCF-7, 24 h, compound concentration not stated; control 574.84 ng/mL
Protocol: as §1

LC3B in MDA-MB-231 cells = test: LC3B ELISA in cell lysates; type: cell-based, human; details: MDA-MB-231, 24 h, 2 μM; control 698.25 ng/mL
Protocol: as §1

[6] = system: caspase 10 in MDA-MB-231 cells; test: Caspase-10 activity, FAM-FLICA flow cytometry; type: cell-based, human; details: MDA-MB-231, 24 h
[7] = system: caspase 3/7 in MCF-7 cells; test: Caspase-3/7 activity, FAM-FLICA flow cytometry; details: MCF-7, 24 h
Protocol: as §3

MDA-MB-231 cells = test: JC-1 mitochondrial membrane potential flow cytometry; type: cell-based, human; details: MDA-MB-231, 24 h
Protocol: (§2) The JC-1 MitoScreen kit (BD Pharmigen, San Diego, CA, USA) and a flow cytometer (BD FACSCanto II) were used to detect the decrease in mitochondrial membrane potential (MMP, ΔΨm) under the action of the studied compounds. […] Following washing, the cells were further suspended in 0.5 mL of buffer with 10 µg/mL JC-1 and incubated for 15 min at room temperature in the dark. Then, cells were washed twice with buffer, resuspended in 300 µL PBS, and analyzed.

MCF-7 cells = test: as above; type: cell-based, human; details: MCF-7, 24 h
Protocol: as §2

[8] = system: MDA-MB-231, 4T1, MCF-7, T-47D, and HCC1954 cells; test: MTT assay, summary over breast carcinoma cell lines; type: cell-based
Protocol: The MCF-7 and MDA-MB-231 cells were cultured in the DMEM medium containing 10% of the FBS, HCC1954, T-47D, and 4T1 cells in the RPMI-1640 medium with the addition of 10% of the FBS, and MCF-10A cells in MEGM Mammary Epithelial Cell Growth Medium BulletKit supplemented with penicillin/streptomycin cocktail and 5% of horse serum. The cells were cultured in a […] atmosphere at 5% CO2 and 37 °C. After trypsinization, cells were counted using a Scepter 3.0 handheld automated cell counter (Millipore, Burlington, MA, USA).
The MTT test was used to assess the metabolic activity of cells treated with the investigated substances following the Sigma-Aldrich manufacturer’s instructions. Briefly, compounds were added in 100 µL of the cultural medium, and cells were incubated for the next 24 and 48 h. Doxorubicin was used as a reference drug. The DMSO was added to dissolve the crystals of formazan. We used the ThermoScientific Evolution 201 UV–VIS spectrophotometer (ThermoFisher Scientific, Waltham, MA, USA) to measure the absorbance of formazan at 570 nm. The initial value of the relative number of cells in control (under 0.1% of the DMSO) was accepted as 100%. We used GraphPad Prism Version 9 to calculate the half-maximal inhibition concentration (IC50) of the studied compounds (the concentration of the drug that reduced cell viability by 50%).

[9] = system: caspase 9 in MDA-MB-231 cells; test: Caspase-9 activity, FAM-FLICA flow cytometry; type: cell-based, human; details: MDA-MB-231, 24 h
Protocol: as §3

Q: Which “concentration of Beclin-1” value (Beclin-1 in MCF-7 cells) does the source give for `O=C1CC(N2C(=O)C(=CC(Cl)=Cc3ccc([N+](=O)[O-])cc3)SC2=S)C(=O)N1c1ccc(O)cc1` (centres unmarked) [Les-6287, 1-(4-hydroxyphenyl)-3-[5-[2-chloro-3-(4-nitrophenyl)prop-2-enylidene]-4-oxo-2-thioxothiazolidine-3-yl]pyrrolidine-2,5-dione] here?
A: The value was 2.78 ng/mL.

Q: And the “concentration of Beclin-1” value [1]?
A: Its value is 9.83 ng/mL.

Q: What about the “cells with active caspase 10” value ([2]; 1 µM) of the same molecule?
A: Its value is 11.58 ± 2.30%.

Q: And the “cells with active caspase 10” value ([2]; 1.5 µM)?
A: The value was 20.50 ± 1.49%.

Q: What about the “cells with active caspase 9” value (caspase 9 in MCF-7 cells; 1 µM) of the same molecule?
A: Its value is 24.40 ± 0.98%.

Q: What about the “cells with active caspase 9” value (caspase 9 in MCF-7 cells; 1.5 µM) of the same molecule?
A: Its value is 36.45 ± 1.05%.

Q: What about the “cells with active caspase 8” value ([3]; 1 µM) of the same molecule?
A: Its value is 18.23 ± 0.62%.

Q: And the “cells with active caspase 8” value ([3]; 1.5 µM)?
A: The value was 23.50 ± 1.03%.

Q: And the IC50 [4]?
A: The IC50 was 29 to 67 µM.

Q: And the “cells with active caspase 8” value (caspase 8 in MCF-7 cells; 1 µM)?
A: The value was 11.08 ± 1.30%.

Q: What about the “cells with active caspase 8” value (caspase 8 in MCF-7 cells; 1.5 µM) of the same molecule?
A: The value was 17.78 ± 5.19%.

Q: What about the IC50 [5] of the same molecule?
A: The IC50 was 2.32 to 3.67 µM.

Q: What about the “concentration of LC3B” value (LC3B in MCF-7 cells) of the same molecule?
A: Its value is 537.74 ng/mL.

Q: And the “concentration of LC3B” value (LC3B in MDA-MB-231 cells)?
A: The value was 483.50 ng/mL.

Q: And the “cells with active caspase 10” value ([6]; 1 µM)?
A: Its value is 14.48 ± 2.53%.

Q: And the “cells with active caspase 10” value ([6]; 1.5 µM)?
A: The value was 19.78 ± 0.80%.

Q: And the “cells with active caspase 3/7” value ([7]; 1 µM)?
A: The value was 21.38 ± 1.50%.

Q: And the “cells with active caspase 3/7” value ([7]; 1.5 µM)?
A: The value was 47.08 ± 3.40%.

Q: And the “cells with decreased mitochondrial membrane potential (ΔΨm)” value (MDA-MB-231 cells; 1 µM)?
A: Its value is 3.75 ± 1.34%.

Q: And the “cells with decreased mitochondrial membrane potential (ΔΨm)” value (MDA-MB-231 cells; 1.5 µM)?
A: Its value is 17.85 ± 3.46%.

Q: And the “cells with decreased mitochondrial membrane potential (ΔΨm)” value (MCF-7 cells; 1 µM)?
A: Its value is 21.00 ± 1.20%.

Q: And the “cells with decreased mitochondrial membrane potential (ΔΨm)” value (MCF-7 cells; 1.5 µM)?
A: Its value is 38.85 ± 3.46%.

Q: What about the IC50 ([8]; Breast carcinoma cell, 24 and 48 h, all five cancer cell lines and all three hybrids together, read-out: IC50, range over breast carcinoma cell lines) of the same molecule?
A: Its IC50 is 1.37 to 21.9 µM.

Q: And the “selectivity index (SI = IC50 for MCF-10A/IC50 for human breast tumor cells)” value ([8]; range over cell lines and time points)?
A: The value was 24.10–47.13.

Q: And the “cells with active caspase 9” value ([9]; 1 µM)?
A: Its value is 15.30 ± 0.80%.

Q: What about the “cells with active caspase 9” value ([9]; 1.5 µM) of the same molecule?
A: The value was 21.88 ± 2.00%.
